Like-named read-outs stand apart in the source and are kept apart here.
How the values were obtained:
[1] = molecular target: T1, StmPr1 (Stenotrophomonas maltophilia, UniProt Q93IQ4); experiment: X-ray crystal structure ([…] Å) plus protease activity assay; format: biochemical
T1 construct: StmPr1 36 kDa (self-digested from 47 kDa, C-terminal extension cleaved)

[2] = molecular target: T2, Proteinase K (Parengyodontium album, UniProt P06873); experiment: protease activity assay (same assay as for StmPr1); format: biochemical
T2 construct: gene PROK
T2 sequence (P06873 106-384): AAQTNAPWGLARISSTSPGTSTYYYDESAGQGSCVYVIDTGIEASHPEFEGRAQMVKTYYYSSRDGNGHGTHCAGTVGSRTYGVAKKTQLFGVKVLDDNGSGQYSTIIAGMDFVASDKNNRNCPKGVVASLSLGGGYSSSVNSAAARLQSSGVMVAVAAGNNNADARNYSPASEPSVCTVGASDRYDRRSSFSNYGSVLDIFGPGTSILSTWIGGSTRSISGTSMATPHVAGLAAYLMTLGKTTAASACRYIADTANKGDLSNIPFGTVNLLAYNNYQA

T1 sequence (Q93IQ4 entry or part of it): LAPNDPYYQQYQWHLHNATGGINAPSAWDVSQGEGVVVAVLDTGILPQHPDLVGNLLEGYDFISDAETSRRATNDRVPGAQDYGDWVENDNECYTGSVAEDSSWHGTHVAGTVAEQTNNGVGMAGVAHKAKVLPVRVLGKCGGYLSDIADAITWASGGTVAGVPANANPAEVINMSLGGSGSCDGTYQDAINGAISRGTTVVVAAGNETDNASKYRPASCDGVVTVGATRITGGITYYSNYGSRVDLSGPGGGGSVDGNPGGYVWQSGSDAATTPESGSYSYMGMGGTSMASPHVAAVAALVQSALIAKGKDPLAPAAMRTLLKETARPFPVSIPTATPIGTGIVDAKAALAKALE

Compound | IC50 [1] [nM] | IC50 ([1]; read-out: IC50) [nM] | IC50 [2] [nM]
O=S(=O)(F)Cc1ccccc1 [PMSF] | 125000 |  | 
CC(C)C[C@H](NC(=O)[C@H](Cc1ccccc1)NC(=O)c1cnccn1)B(O)O [Bortezomib] |  | 1970 | 1450

From article PMC12181431, “Unveiling the structure, function and dynamics of StmPr1 in Stenotrophomonas maltophilia virulence” (Scientific Reports, 2025)
